Measurements: PubChem BioAssay (NCI)
Values joined by “and” are separate entries in the source; they are usually repeats but may differ in a detail not shown here. Equal entries are not always repeated.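 Tested at 5 concentrations; 48 h exposure; 96-well plates; endpoints linearly interpolated, else capped at highest concentration. Here, GI50 denotes the concentration required for 50% inhibition of growth. TGI marks complete inhibition of growth.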 Residues, ends and D or L forms follow the SMILES beside them. *: point of attachment. Cbz = O=C(OCc1ccccc1)*

Tested on: MDA-MB-468 breast
Assay: DTP human tumour cell line panel, 48 h

| Compound | GI50 | TGI |
| --- | --- | --- |
| Cc1ccccc1C(C(=O)NC1CCCCC1)N(C(=O)CNc1ncccc1F)c1cccc(F)c1 (centres undefined) | > 65.6 µM | > 100 µM |
| O=S(=O)(NCCCNc1cc(-c2cn(-c3ccccc3)nc2-c2cccc(O)c2)ccn1)c1ccc(Br)cc1 | 1.54 µM | 5.61 µM |
| COc1cc2nc3cc([N+](=O)[O-])ccc3c(NCCNCC(C)O)c2cc1OC (centres undefined) | 0.203 µM | 0.542 µM |
| O=C1CC(N2C(=O)/C(=C/C(Cl)=C\c3ccc([N+](=O)[O-])cc3)SC2=S)C(=O)N1c1ccc(O)cc1 (centres undefined) | 1.87 µM | 5.7 µM |
| C[C@H]1CCC/C=C/[C@@H]2C[C@H](O)C[C@H]2[C@H](O)/C=C/C(=O)O1 | 0.0312 µM | 0.268 µM |
| O=c1oc2ccc(Br)cc2c(=O)n1-c1ccc(Cl)cc1F | 1.38 µM | 5.19 µM |
| CC(C)C[C@@H](C=O)NC(=O)[C@H](CC(C)C)NC(=O)[C@H](CC(C)C)NC(=O)OCc1ccccc1 (Cbz-Leu-Leu-Leu-aldehyde) | 0.249 µM | 0.663 µM |
| O=C1c2c(Cl)c(Cl)c(Cl)c(Cl)c2C(=O)C2(Cl)CC=CCC12Cl (centres undefined) | 1.21 µM | 2.88 µM |
| C=CC(=O)Nc1cccc(Oc2nc(Nc3ccc(N4CCN(C)CC4)cc3OC)ncc2Cl)c1 | 0.113 µM | 0.518 µM |
| NC(=O)c1cc(Br)ccc1NC(=O)/C=C/c1ccccc1 | 0.837 µM | 4.32 µM |
| Cc1sc2c(c1C)C(c1ccc(Cl)cc1)=N[C@@H](CC(=O)NCCCN1CCN(C)CC1)c1nnc(C)n1-2 | 0.197 µM | > 100 µM |
| NC(N)=Nc1ccc(/C=C2\C=Cc3ccccc32)cc1 | 0.148 µM | 0.969 µM |
| O=[N+]([O-])c1ccc2c(c1)C(c1ccccc1Cl)=Nc1c(n[nH]c1-c1cccnc1)N2 | > 25 µM | > 25 µM |
| Cc1[nH]c(C(=O)Nc2ccccc2OCc2cccc(C(=O)NC3CCNC3)c2)c(Cl)c1Cl (centres undefined) | 1.89 µM | 3.6 µM |
| Nc1ncn([C@H]2C[C@H](OP(=O)(O)OC[C@H]3O[C@@H](n4cnc5c(=O)[nH]c(N)nc54)C[C@@H]3O)[C@@H](CO)O2)c(=O)n1 | 0.154 µM | 67.9 µM |
| COc1cc(C2CC(=O)Nc3c2c(C)nn3-c2nc3ccccc3[nH]2)cc(OC)c1O (centres undefined) | 2.37 µM | 7.09 µM |
| C=C1C(=O)O[C@H]2[C@H]1CC/C(CNC(=O)/C=C/c1ccccc1F)=C\CC[C@@]1(C)O[C@@H]21 | 0.493 µM | 1.96 µM |
| COc1ccc2c(c1)C(c1cc(OC)c3c(c1)OCO3)C1=C(COC1=O)N2 (centres undefined) | 0.205 µM | 0.849 µM |
| CC(C)Cc1ccc(C(C)C(=O)NCc2ccc(Cn3c(=O)sn(CCCI)c3=O)cc2)cc1 (centres undefined) | 0.423 µM | 1.62 µM |
| CN(C)Cc1c(C(=O)NCCOc2ccc(C(=O)NO)cc2)oc2ccccc12 | 0.152 µM | 2.36 µM |
| CN(C)CCS(=O)(=O)Nc1cc(-c2ccc3ncc(C#N)c(Nc4ccc(F)c(Cl)c4)c3c2)cnc1Cl | 0.0583 µM | 0.233 µM |
| Cc1ccc(OCCOCCOCCOCCOCCOc2ccc(C)n(O)c2=S)c(=S)n1O | 0.0368 µM | 0.412 µM |
| C=CCOC(=O)Nc1cccn([C@H](CC(C)C)C(=O)NCCC(C)C)c1=O | 42.4 µM | > 100 µM |
| COc1ccc(-c2[nH]nc(N)c2-c2cc(OC)c(OC)c(OC)c2)cc1 | 0.0368 µM | 6.23 µM |
| CN1CCN(Cc2ccc(NC(=O)c3cncc(C#Cc4cnc5ccc(OC6CCOCC6)nn45)c3)cc2C(F)(F)F)CC1 | 0.105 µM | 0.278 µM |
| COC(=O)[C@@H](C)C[C@H](Cc1ccccc1)NC(=O)c1csc([C@@H](C[C@H](C(C)C)N(C)C(=O)[C@@H](NC(=O)[C@H]2CCCN2C)C2CC2)OC(C)=O)n1 | 0.000328 µM and 0.0025 µM | > 25 µM |

| Compound | GI50 | TGI |
| --- | --- | --- |
| N#CC1=C(N)Oc2c(sc3c(Br)cccc23)C1c1ccc(Cl)cc1 (centres undefined) | 0.521 µM | 3.2 µM |
| C=C1CC2C3C=C(C)C4=CC(=O)CC[C@]4(C)C3CC[C@]2(C)[C@@]1(OC(C)=O)C(C)=O (some centres undefined) | 3.23 µM | > 100 µM |
| NC(=O)n1c(=O)n(-c2cccc(C(F)(F)F)c2)c(=O)c2cc(-c3ccc(F)cc3F)ccc21 | 1.84 µM | 5.83 µM |
| Cn1cc(C2=C(c3cn(CCCCCO)c4ccccc34)C(=O)NC2=O)c2ccccc21 | 3.47 µM | 14.1 µM |
| CCCCCCCCCCCCCCCCN(CC)CC | 2.21 µM | 4.55 µM |
| O=C1NC(=NCCc2ccccn2)S/C1=C\c1ccc2ncccc2c1 | 5.77 µM | > 25 µM |
| CC(=O)N[C@@H](Cc1ccc(OP(=O)(O)O)cc1)C(=O)N[C@H]1CCC(=O)N2CCC[C@@H](C(=O)NCc3ccccc3)N2C1=O | > 25 µM | > 25 µM |
| CNC(=O)c1cccc(C#Cc2cncnc2Nc2ccc(OCc3cccc(F)c3)c(Cl)c2)c1 | 0.616 µM | 4.05 µM |
| CCNCCNc1cc(-c2ccc(C(F)(F)F)cc2)c(C#N)c2nc3cc(Cl)c(Cl)cc3n12 | 1.83 µM | 3.39 µM |
| Cc1ccsc1-c1ccc2c(c1)COC2(CCCN(C)C)c1ccc(F)cc1 (centres undefined) | 1.58 µM | 3.06 µM |
| CN(C)C=Nc1c(I)cc(I)c(CCC(=O)O)c1I | > 100 µM | > 100 µM |
| Cc1[nH]nc2ncc(C(=O)N3CCC[C@H]3c3ccc(Cl)cc3)cc12 | 33.3 µM | > 100 µM |
| CN(C)CCOc1ccccc1NC1=C(Cl)C(=O)C(Nc2ccccc2OCCN(C)C)=C(Cl)C1=O | 0.579 µM | 1.17 µM |
| Cn1c(=O)c(Oc2ccc(F)cc2F)cc2cnc(NC3CCOCC3)nc21 | > 25 µM | > 25 µM |
| Oc1ccccc1/C=N\NC(=S)N/N=C/c1ccccc1O | 2.24 µM | 30.5 µM |
| Cc1cccc(Cl)c1NC(=O)c1cnc(Nc2cc(N3CCOCC3)cc(S(C)(=O)=O)c2)s1 | 1.47 µM | 8.03 µM |
| COc1ccc(Cn2cc3c(c2-c2cc(OC)c(OC)c(OC)c2)CCc2c(CO)noc2-3)cc1 | 0.307 µM | 18.9 µM |
| C=CC(=O)N1CC[C@H](n2nc(C#Cc3cc(OC)cc(OC)c3)c3c(N)ncnc32)C1 | 3.33 µM | 78.5 µM |
| CC/C=C\C[C@H](O)C/C=C1/C(=O)C=C[C@@H]1C/C=C\CCCCO | 1.97 µM | 4.65 µM |
| Cc1ccccc1C(C(=O)NC1CCCCC1)N(C(=O)CNc1ccc(C#N)cc1)c1cccc(F)c1 (centres undefined) | 25.7 µM | > 100 µM |
| CC1Cc2ccccc2N1C(=O)Cc1nc(N2CCOCC2)cc(=O)[nH]1 (centres undefined) | 2.06 µM and 5.78 µM | 17.1 µM and 47.5 µM |
| COc1cc(/C=C/C(=O)c2c(-c3ccc(F)cc3)nc3sc(C)nn23)cc(OC)c1OC | 1.92 µM | 7.74 µM |
| COC(=O)CNc1nc(N(C)O)nc(N(C)O)n1 | 2.16 µM | 17.4 µM |
| O=C(O)c1cn(C2CC2)c2cc(N3CCN(Cc4c(O)ccc5ccccc45)CC3)c(F)cc2c1=O | 15.2 µM | > 100 µM |
| NCCSC(c1ccccc1)(c1ccccc1)c1ccccc1 | 0.357 µM | 1.63 µM |
| CCCN(CCC)c1ccc(C=O)c(C)c1 | 1.98 µM | 32.5 µM |
